Test results as given in patent publication US11938153B2, “Methods of treating T cell exhaustion by inhibiting or modulating T cell receptor signaling” (THE BOARD OF TRUSTEES OF THE LELAND STANFORD JUNIOR …, priority 2017, dated 2024).

Assays:
NALM6-GL-GD2 = details: mice that received TMP
Experimental: At day 7 post-engraftment, 1-5×10^6 GD2.28z.DHFR or HA-GD2.28z.DHFR CAR+ T cells were infused intravenously.
Mice were then injected with either stabilizing drug or vehicle control every day thereafter.
To test this, antigen-bearing tumor cells were engrafted into NSG mice and subsequently infused 2-5E6 HA-GD2.28z.DHFR-expressing T cells. Mice were dosed with TMP everyday thereafter.

GD2.28z.FKBP CAR T cells [1] = experiment: IL-2 secretion of GD2.28z.FKBP CAR T cells in co-culture with Nalm6 cells expressing GD2 (ELISA); format: cell-based, human
Experimental: Because phenotypic markers may not be entirely predictive of T cell function, we also performed functional experiments on CAR T cells provided transient drug exposure in culture. CAR T cells were washed, resuspended in media containing S1, and mixed at a 1:1 ratio with Nalm6 leukemic cells stably expressing surface GD2. Culture supernatants were harvested approximately 24 hours later and cytokine levels were evaluated via ELISA.
Similar to GD2.28z CAR that lacks a destabilization domain and therefore have persistent high levels of CAR signaling, cells expressing the GD2.28z.FKBP CAR that experienced continuous drug treatment (FIG. 4, grey bars) secreted minimal amounts of IL-2 on both day 10 and day 14 post-activation, consistent with T cell exhaustion.

HA-GD2.28z.FKBP = experiment: Exhaustion marker co-expression on HA-GD2.28z.FKBP CAR T cells; format: cell-based, human; details: upon removal of shield-1 from the culture medium
Experimental: When assessing IL-2 and IFNγ, cells were surface stained, then fixed and permeablized (eBioscience) prior to incubation with intracellular antibodies.
T cells were removed from culture, fixed in 2% PFA for 10 minutes at room temperature, pelleted and frozen at −80C. Upon thawing, each sample was barcoded with a 20-plex Pd harcoding kit (FIuidigm). Cell samples were then pooled and stained for surface marker expression with heavy-metal conjugated antibodies for 30 minutes at room temperature. Cells were then permeablized in methanol and subsequently stained with heavy metal-conjugated anti-human T-bet (4B10, Biolegend) and anti-human Blimp-1 (ROS195G, Biolegend) for 30 minutes at room temperature. Samples were run on a Helios mass cytometer (Fluidigm) and analyses were complete using Cytobank online software.
It was next determined whether the prevention or reversal of tonic signaling in HA-GD2.28z.FKBP-expressing CAR T cells altered their exhaustion phenotype.

GD2.28z.FKBP CAR T cells [2] = experiment: Exhaustion phenotype of GD2.28z.FKBP CAR T cells after S1 removal (FACS); format: cell-based, human
From the text: Since tonic signaling is highly dependent upon GD2-CAR receptor levels, precise control of CAR expression levels also precisely regulates levels of tonic signaling. Drug regulated control of levels of CAR expression therefore also allowed modulation of the duration and intensity of GD2.28z tonic signaling. […] This is most well illustrated by measuring levels of PD-1/TIM-3/LAG-3 triple expressing cell which is highly specific for dysfunctional, exhausted T cells. […] Similar results were obtained on day 14 for cells in which S1 was removed from culture medium on day 7 or day 10 (not shown).

[3] = system: HA-GD2.28z.FKBP CAR T cells; experiment: Western blot of CAR CD3-zeta phosphorylation (tonic signaling); format: cell-based, human; details: cultured in the absence of S1 (CAR Always OFF)
From the text: This phenotype was also reversible, as indicated by the lack of CD3-zeta phosphorylation in DD-CAR T cells that were initially cultured with S1, but then had drug removed on day 7 of the culture (FIG. 16, CAR OFF D7).

GD2.28z.FKBP CAR = target: T1, GD2.28z.FKBP CAR (Homo sapiens, UniProt P62942, E32G/F37V/K106E/R72G); experiment: Regulation of GD2.28z.FKBP CAR surface expression by shield-1 (FACS); format: cell-based; details: adding or subtracting S1 in culture medium
T1 construct: expressed in transfected cells; host or cells: T cells, lentiviral transduction
T1 sequence (P62942 2-108 E32G/F37V/R72G/K106E): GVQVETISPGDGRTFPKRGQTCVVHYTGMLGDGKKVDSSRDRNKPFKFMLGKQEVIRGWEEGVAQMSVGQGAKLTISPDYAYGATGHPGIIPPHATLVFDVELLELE
From the text: FIG. 1: Characterization of the GD2.28z.FKBP CAR. T cells were transduced with lentivirus encoding the GD2.28z.FKBP CAR on day 1 after activation and subsequently cultured with various concentrations of shield-1 in the growth medium. On day 7, CAR expression was quantified via FACS.

Her2.28z.FKBP = target: T2, Her2.28z.FKBP (Homo sapiens, UniProt P62942, E32G/F37V/K106E/R72G); experiment: Regulation of Her2.28z.FKBP CAR expression by shield-1 (protein L stain, FACS); format: cell-based; details: 0.1 uM or 1 uM, 24 hours after addition of drug
T2 construct: expressed in transfected cells; host or cells: T cells, lentiviral transduction
T2 sequence (P62942 2-108 E32G/F37V/R72G/K106E): as above
Experimental: The FKBP12 DD domain was fused to the far c-terminus of the Her2.28z CAR. T cells were transduced with lentivirus to express the Her2.28z.FKBP. […] 24 hours after addition of drug, CAR T cells were stained with protein L and CAR expression was assessed via FACS. Both the percentage of CAR+ cells (quantified in the histograms) as well as CAR MFI are increased upon incubation with either 0.1 uM or 1 uM Shield-1 (S1).

[4] = system: HA-GD2.28z.FKBP CAR T cells; experiment: Sorted PD-1/TIM-3/LAG-3 triple positive HA-GD2.28z.FKBP CAR T cells re-cultured with or without S1 (FACS, co-culture); format: cell-based, human
From the text: Functional studies by several groups, including our lab have verified that co-expression of PD-1, TIM-3, and LAG-3 (triple positive, TP) denotes an exhausted cell subset that is highly dysfunctional. We thus sought to analyze whether cessation of tonic signaling in this cell subset could reverse their phenotype and restore their ability to secrete IL-2 in response to tumor antigen. […] On day 10 post-activation, HA-GD2.28z.FKBP CAR T cells that had experienced continuous S1 treatment were sorted in order to isolate a pure PD-1/TIM-3/LAG-3 exhausted population. “Triple positive” exhausted cells were then re-cultured either with or without S1 to test whether removal of tonic signaling could restore their function. FACS and co-culture assays were conducted 4 days later.

[5] = S1 removed day 7 or 10, read day 14, vs continuous S1

`COc1cc(Cc2cnc(N)nc2N)cc(OC)c1OC` [trimethoprim] was tested, and the “CD69 surface expression of CAR T cells” value (NALM6-GL-GD2) was “higher CD69 surface expression”.

In the case of `CC[C@H](C(=O)N1CCCC[C@H]1C(=O)O[C@H](CCc1ccc(OC)c(OC)c1)c1cccc(OCCN2CCOCC2)c1)c1cc(OC)c(OC)c(OC)c1` [shield-1], the IL-2 secretion (GD2.28z.FKBP CAR T cells [1]; S1 removed day 7, vs continuous S1) is reported as “superior IL-2 secretion”, the “IL-2 secretion of exhausted T cells after rest” value (GD2.28z.FKBP CAR T cells [1]; S1 removed day 10, rested 4 days, day 14 ELISA) is reported as “reinvigorated” and the “augmentation of IL-2 secretion” value (GD2.28z.FKBP CAR T cells [1]; cultured without S1, S1 added back just prior to co-culture, vs continuous S1) is reported as 5-10 fold. For the same compound, the “co-expression of canonical exhaustion markers” value (HA-GD2.28z.FKBP) was “rapidly downregulated”, the “apoptosis (annexin V staining)” value (GD2.28z.FKBP CAR T cells [2]; [5]) was “prevention of apoptosis” and the “memory markers (CD62L)” value (GD2.28z.FKBP CAR T cells [2]; [5]) was “maintenance of memory markers”. The “canonical exhaustion marker expression” value (GD2.28z.FKBP CAR T cells [2]; S1 removed day 7 post-activation, read day 10) was “reverses canonical exhaustion marker expression to control levels”, the CD3-zeta phosphorylation [3] was “absent” and the “regulation of CAR surface expression” value (GD2.28z.FKBP CAR) was “rapidly and dose-dependently regulated”. The “CAR MFI” value (Her2.28z.FKBP) was “increased”, the “percentage of CAR+ cells” value (Her2.28z.FKBP) was “increased” and the “expression of exhaustion markers” value ([4]; 4 days without S1, CD4+ and CD8+ CAR T cells) was “far less expression of exhaustion markers”. For the same compound, the “increase in IL-2 secretion” value ([4]; removal of S1 vs continuous S1 days 10-14) was 2 fold.

For “nivolumab: anti-PD-1 checkpoint inhibitor”, the IL-2 secretion (GD2.28z.FKBP CAR T cells [1]; continuous S1 + nivolumab, day 10, sustained until day 14) was “only modest augmentation of IL-2 secretion”.
